Laboratory results published in patent US10792263B2, “Method of treating an individual having a microbial infection” (Sun Yat-sen University, priority 2012, dated 2020).
Where two headings read alike, the source gives them in different places.

What was measured:
E. coli = test: Human serum bactericidal assay with threonine, OD600 survival rate; assay type: cell-based, Escherichia coli; conditions: 2 hours
Procedure: The prepared bacterial cells are divided to four groups. […] Absorbance is measured at 600 nm Survival rate is calculated as follows: the OD in groups after treatment with serum, threonine or serum plus threonine/the OD in the control group treated with saline×100%. […] Certain bactericidal effect is detected in the group with serum alone. Compared with the group with serum alone, the group with serum plus threonine has a significant 1.5-fold increase of bactericidal effect.

E. coli K12 BW25113 [1] = conditions: for increase of bactericidal effect, serum plus glycine versus serum: 100 μL human serum plus 100 mM glycine
Procedure: (§1) Sample preparation: Single colonies of the parent strain E. coli K12 BW25113 are picked from Luria-Bertani (LB) agar plate, inoculated into 5 mL LB medium and incubated with shaking at 200 rpm, 37° C. for 16 hours. Cultures are then diluted 1:100 (v/v) in 200 mL fresh LB medium and grow to an OD600 of 1.0 at 37° C. with shaking. Cells are collected by centrifugation at 8000 rpm for 10 minutes at 4° C. and washed with 0.85% saline once.
To understand whether glycine enhances the bactericidal effect of serum, experiments are carried out in 3 scenarios: the same volume of human serum mixed with different concentrations of glycine, different volumes of human serum mixed with the same concentration of glycine, and these mixtures are treated for different incubation periods.
Bacterial cells are prepared according to Example 1.1. Glycine is added to a final concentration of 0, 5, 10, 30, 50 and 100 mM and the mixtures are cultured for 1 hour at 37° C. with shaking at 200 rpm. Then 100 μL of human serum or saline are added as test and control groups, respectively. Bacteria are cultured for 2 hours and collected by centrifugation. Cells are resuspended with 1 mL of saline. Live bacterial cells are counted on LB agar plate. Survival rate is calculated as follows: number of live bacteria cells after treatment with different concentrations of glycine supplementation/number of live bacteria cells after treatment with saline×100%.
Bacterial samples are prepared and added with 100 mM glycine and cultured for 1 hour at 37° C. with shaking at 200 rpm. Then 0, 20, 40, 60, 80 or 100 μL human serum is added and cultured for 2 hours at 37° C. with shaking at 200 rpm. The controls are not mixed with glycine but only with different volumes of human serum. Bacteria are collected by centrifugation and resuspended with 1 mL of saline for spot-plate counting. The survival rate is calculated as follows: the number of live bacteria cells after treatment with glycine plus different volumes of human serum/the number of live cells after treatment with only human serum×100%.
The prepared bacterial samples are divided into 4 groups and treated separately as follows: with 100 mM glycine, 100 μL human serum, 100 μL human serum plus 100 mM glycine or saline alone as control. The mixtures are cultured for 0.5, 1, 2, 3, and 4 hours at 37° C. with shaking at 200 rpm. Bacteria are collected by centrifugation and resuspended in 1 mL saline. Bacteria are counted using LB agar plates. The survival rate is calculated as follows: the number of live bacteria after treatment with serum and/or glycine in different times/the number of live bacteria in the saline control group×100%.

[2] = system: E. coli K12 BW25113, E. coli clinical strain Y17, beta-hemolytic Streptococcus, Vibro alginolyticus, Vibro parahaemolyticus, Pseudomonas aeruginosa and …; conditions: 125-175 μL human serum plus 100-150 mM glycine, 4 hours
Procedure: as §1

[3] = system: E. coli K12 BW25113, E. coli clinical strain Y17, Vibro alginolyticus, Vibro parahaemolyticus, Pseudomonas aeruginosa and Staphylococcus aureus; conditions: 100 μL serum/plasma of different animals plus 100 mM glycine, 4 hour
Procedure: as §1
A variety of bacteria (E. coli K12 BW25113, E. coli clinical strain Y17, Vibro alginolyticus, Vibro parahaemolyticus, Pseudomonas aeruginosa and Staphylococcus aureus) are cultured as described in Example 1.1. Aliquots of 3 mL bacteria are collected with OD600 of 1.0. Then, 100 μL serum/plasma from different animals or 100 μL serum/plasma of different animals plus 100 mM glycine are added and 100 mM glycine alone is used a control. Cells are cultured for 4 hour at 37° C. with shaking at 200 rpm. Bacteria are resuspended with 1 mL of saline. Absorbance is measured at 600 nm.

E. coli K12 BW25113 [4] = conditions: mice, 6 times, blood at 48 hours
Procedure: (§2) A total of 15 6-week-old mice (purchased from the Laboratory Animals Center of Sun Yat-sen University) are randomly divided into three groups: saline control group and two treatment groups are administered with 3.25 or 6.5 mg glycine/mouse. The compound is intravenously administered at 3.25 or 6.5 mg glycine/injection/mouse every 12 hours and 6 times in total. Mice are intravenously injected 1×10^6 E. coli K12 BW25113 or E. coli clinical isolate Y17 at 12 hours after the last administration of glycine. Blood is withdrawn from mouse tail vein at 48 hours. The clearance of bacteria is determined by plate counting.

[5] = system: E. coli clinical isolate Y17; conditions: mice, 6 times, blood at 48 hours
Procedure: as §2

[6] = 3.25 mg glycine/injection i.v. every 12 hours
[7] = 6.5 mg glycine/injection i.v. every 12 hours

| SMILES | bactericidal effect of threonine alone (E. coli; 100 mM threonine without serum) | increase of bactericidal effect, serum plus threonine versus serum alone (E. coli; 100 μL human serum plus 100 mM threonine) [fold] | increase of the serum bactericidal effect (E. coli K12 BW25113 [1]; 5 mM glycine, 1 h preincubation, then 100 μL human serum for 2 hours, 37° C.) [fold] | elevation of serum bactericidal effect, serum volume series (E. coli K12 BW25113 [1]; 100 mM glycine plus 100 μL human serum, 2 hours, versus human serum only) [fold] | bactericidal effect of glycine alone (E. coli K12 BW25113 [1]; 100 mM glycine without serum, 0.5 to 4 hours) | increase of the serum bactericidal effect (highest effect) (E. coli K12 BW25113 [1]; 100 mM glycine, 1 h preincubation, then 100 μL human serum for 2 hours, 37° C.) [fold] | increase of bactericidal effect, serum plus glycine versus serum (E. coli K12 BW25113 [1]; after 0.5 hours) [fold] | increase of bactericidal effect, serum plus glycine versus serum (E. coli K12 BW25113 [1]; after 1 hour) [fold] | increase of bactericidal effect, serum plus glycine versus serum (E. coli K12 BW25113 [1]; after 4 hours) [fold] | increase of serum bactericidal effect, lower bound over all bacteria tested [2] | increase of serum bactericidal effect, maximum over all bacteria tested [2] | increase of bactericidal effect of animal serum/plasma, maximum [3] [fold] | increase of bactericidal effect of animal serum/plasma, minimum [3] [fold] | Clearance rate (E. coli K12 BW25113 [4]; [6]) [%] | Clearance rate (E. coli K12 BW25113 [4]; [7]) [%] | Clearance rate [5, 6] [%] | Clearance rate [5, 7] [%] |
| --- | --- | --- | --- | --- | --- | --- | --- | --- | --- | --- | --- | --- | --- | --- | --- | --- | --- |
| C[C@@H](O)[C@H](N)C(=O)O [threonine] | no bactericidal effect | 1.5 | – | – | – | – | – | – | – | – | – | – | – | – | – | – | – |
| NCC(=O)O [glycine] | – | – | 1.36 | 86 | no bactericidal effect | ~86 | 2 | 77 | 120 | more than 1 fold | up to 4.13 fold | ~10 | ≥ 1.5 | 89.32 | 96.85 | 32.95 | 52.53 |
